Measurements reported in publication PMC11820736, “Design, Synthesis, and Anti-Tyrosinase, Anti-Melanogenic, and Antioxidant Activities of Novel (Z)-3-Benzyl-5-Benzylidene-2-Thioxothiazolidin-4-One Analogs” (Molecules, 2025).
Entries after “also recorded” stand apart in the source; their conditions may differ.

Tests used:
[1] = ROS-scavenging activity (SIN-1, DCFH); details: 40 μM, SIN-1 10 μM
Method: UV-A radiation induces ROS generation substantially, and oxidative stress accelerates melanin formation in organisms. Thus, the ROS-scavenging ability of (Z)-BBTT analogs was examined to determine whether these analogs have an auxiliary ability to scavenge ROS. 3-Morpholinosydnonimine (SIN-1; 10 μM) was used as a ROS generating substance, and Trolox (40 μM) was used as a positive reference standard.
The test samples ((Z)-BBTT analogs 1–12 and Trolox [positive reference standard]) and 3-morpholinosydnonimine (SIN-1) were dissolved in DMSO and PBS, respectively. To prepare 2′,7′-dichlorodihydrofluorescein (DCFH) solution, PBS (50 mM; 4.9 mL, pH 7.4) and DCFH diacetate (2.5 mM; 0.05 mL) were mixed with esterase (15 units/10 mL; 0.05 mL). After storage for 30 min at 20 °C, the mixture was placed in the dark until further use. SIN-1 (10 µL) was added to each well of a 96-well black plate containing PBS (180 µL) and test sample (10 µL), and the plate was placed in the dark for 5 min. The prepared DCFH solution (50 µL) was added to each well of the black plate. The fluorescence of each well was recorded at 535 nm using a microplate reader (Berthold Advances GmbH & Co., Bad Wildbad, Germany) at an excitation wavelength of 485 nm. The test samples and SIN-1 were tested at final concentrations of 40 and 10 μM, respectively.

[2] = ABTS cation radical scavenging activity; details: 100 μM, 2 min in the dark
Method: To measure the scavenging effects of analogs 1–12 on ABTS^+ radicals, ABTS was initially treated with potassium persulfate to yield ABTS^•+. The formed ABTS^+ radical solution was mixed with test samples (analogs 1–12 and Trolox [positive reference standard]; final concentration: 100 μM), and absorbance was measured at 732 nm after storing for 2 min in the dark to determine %ABTS^•+-scavenging ability.
ABTS^•+ was prepared by mixing equal amounts of ABTS (14 mM in H2O) and K2S2O8 (4.9 mM in H2O) and storing in the dark at 20 °C for 16 h. Prior to use, the absorbance of the prepared ABTS^•+ solution was adjusted to 0.7 ± 0.02 at 732 nm by dilution with methanol. A cosolvent (EtOH:DMSO = 10:1 [v/v]) was used to prepare solutions of the test samples (analogs 1–12 and Trolox [positive reference standard]). All test samples were used at a final concentration of 100 μM. The test sample solution (10 μL) was mixed with the adjusted ABTS^•+ solution (90 μL) in each well of a 96-well plate, and the mixture was kept in the dark at 20 °C for 2 min. The absorbance was recorded at 732 nm at 1 min intervals for 10 min using a VE microplate reader. The percentage of radical-scavenging activity was calculated using the formula % radical-scavenging activity = [(Abscontrol − Abssample)/Abscontrol] × 100, where Abssample and Abscontrol are absorbances of the sample and control, respectively.

[3] = test system: B16F10 cells; assay: Cellular melanin level measurement in B16F10 cells; assay type: cell-based, murine; details: 72 h; for effect on stimulator-induced increase in melanin contents: 2, 5 and 10 μM, concentration-dependent
Method: Stimulators comprising 1 μM α-melanocyte-stimulating hormone (α-MSH) and 200 μM 3-isobutyl-1-methylxanthine (IBMX) were administered 1 h after test sample treatment. The effects of analogs 1 and 3 on melanin production were determined by measuring the optical density at 405 nm after 72 h of treatment.
B16F10 cells were seeded at a density of 5000 per well of a 6-well plate, and the plate was cultivated under normal cell culture conditions for 24 h. […] In addition, 200 μM IBMX and 1 μM α-MSH (Alomone Labs™, Jerusalem, Israel) were added to each well and cultivated for 72 h under the normal cell culture conditions. To determine the cellular melanin levels, 1N–NaOH solution (100 μL) was added to each well and then kept at 60 °C for 1 h to lyse the cells. The cell lysates were washed twice with phosphate-buffered saline (PBS) and transferred to a 96-well plate, and the absorbance was recorded at 405 nm using a VE microplate reader to determine the cellular melanin content.

[4] = molecular target: T1, B16F10 cellular tyrosinase (Mus musculus, UniProt P11344); assay: Cellular tyrosinase activity measurement in B16F10 cells; assay type: cell-based, murine; details: α-MSH + IBMX, 72 h; for inhibition of cellular tyrosinase activity compared with kojic acid: 10 μM; for effect on stimulator-enhanced cellular tyrosinase activity: 2, 5 and 10 μM, concentration-dependent
T1 construct: endogenous in cells; host or cells: B16F10 murine melanoma cells stimulated with α-MSH and IBMX
T1 sequence (P11344 19-533): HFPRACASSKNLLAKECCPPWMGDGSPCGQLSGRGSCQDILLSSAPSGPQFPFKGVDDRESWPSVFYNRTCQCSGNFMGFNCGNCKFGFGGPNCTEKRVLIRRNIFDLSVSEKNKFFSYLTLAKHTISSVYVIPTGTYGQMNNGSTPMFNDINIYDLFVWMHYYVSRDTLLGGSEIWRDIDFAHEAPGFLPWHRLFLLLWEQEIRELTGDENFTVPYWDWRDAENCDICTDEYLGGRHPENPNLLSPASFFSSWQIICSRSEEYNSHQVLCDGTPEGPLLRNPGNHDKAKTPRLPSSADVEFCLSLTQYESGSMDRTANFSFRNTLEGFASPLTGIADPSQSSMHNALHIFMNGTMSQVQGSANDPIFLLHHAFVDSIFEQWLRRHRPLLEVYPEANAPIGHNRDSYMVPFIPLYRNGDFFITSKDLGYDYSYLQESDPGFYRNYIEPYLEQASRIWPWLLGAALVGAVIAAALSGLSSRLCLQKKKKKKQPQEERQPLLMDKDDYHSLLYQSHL
Method: The cellular tyrosinase inhibitory activity of the test samples was determined by measuring their optical density at 475 nm 72 h after test sample treatment.
B16F10 cells were seeded at a density of 5000 per well of a 6-well plate, and the plate was cultivated under normal cell culture conditions for 24 h. […] Stimulators (200 μM IBMX and 1 μM α-MSH) were added to each well and cultivated for 72 h under normal cell culture conditions. To determine cellular tyrosinase activity, the cells were washed twice with PBS, treated with lysis buffer solution (100 μL) comprising 50 mM phosphate buffer (pH 6.5) (90 μL), 2 mM phenylmethanesulfonyl fluoride (5 μL), and 20% Triton X-100 (5 μL), and incubated at −80 °C for 30 min. After centrifugation (10,000× g, 4 °C, and 10 min), the supernatants (80 μL each) were transferred to each well of a 96-well plate, then 10 mM L-DOPA (20 μL) was added to each well. The absorbance was measured at 475 nm at 1 min intervals for 10 min using a VE microplate reader to determine cellular tyrosinase activity.

[5] = test system: HaCaT cells; assay: Cytotoxicity assay on HaCaT cells (EZ-Cytox); assay type: cell-based, human; details: 2, 5, 10 and 20 μM, 72 h
Method: As keratinocytes are one of the major cells that constitute the epidermis, the effects of analogs 1–3 on HaCaT (immortalized human keratinocytes) cell viability were investigated. Analogs 1–3 were tested at concentrations of 0, 2, 5, 10, and 20 μM, and cell viability was determined 72 h after incubation.
The effect of (Z)-BBTT analogs 1–3 on HaCaT cell viability was examined using EZ-Cytox solution. HaCaT cells were seeded at a density of 1 × 10^3 in each well of a 96-well plate, and the plate was cultivated under normal cell culture conditions for 24 h. Analogs 1–3 were added to each well at concentrations of 0, 2, 5, 10, and 20 μM and then cultivated for 72 h under normal cell culture conditions. An aliquot (10 μL) of the EZ-Cytox solution was added to each well and cultivated for 2 h. Well absorbance was recorded at 450 nm using a VE microplate reader to calculate HaCaT cell viability.

[6] = molecular target: T2, B16F10 cell tyrosinase (Mus musculus, UniProt P11344); assay: In situ cellular tyrosinase activity in B16F10 cells (L-DOPA staining); assay type: cell-based, murine; details: for relative dark area of cells compared with kojic acid at the same concentration: 10 μM, L-DOPA staining; for number of cells strongly stained with melanin: kojic acid 10 μM, analogs 2, 5 and 10 μM, α-MSH + IBMX, 72 h
T2 construct: endogenous in cells; host or cells: B16F10 murine melanoma cells stimulated with α-MSH and IBMX
T2 sequence (P11344 19-533): T1 sequence (P11344 19-533)
Method: To identify the in situ cellular tyrosinase inhibitory activity of analogs 1 and 3, B16F10 cells and L-DOPA were used as the experimental target cells and substrate for melanin synthesis, respectively. […] B16F10 cells were photographed after 2 h of treatment with excess L-DOPA, and the darkness of the cells was measured using the CS analyzer program (ATTO, Tokyo, Japan). Analogs 1 and 3 were used at 2, 5, and 10 μM.
After 1 h, the cells were exposed to 1 μM α-MSH and 200 μM IBMX and cultivated under normal cell culture conditions for 72 h. Cultured cells were fixed using a 4% paraformaldehyde solution for 40 min, washed twice with PBS, and permeabilized using 0.1% Triton X-100 for 2 min. L-DOPA solution (2 mM; 500 μL) was added to each well after washing twice with PBS. After the plate was placed for 2 h at 37 °C, the images for cell staining were acquired using a camera attached to a microscope (Motic, Hong Kong).

[7] = test system: B16F10 cells; assay: Cytotoxicity assay on B16F10 murine melanoma cells (EZ-Cytox); assay type: cell-based; details: 1, 2, 5 and 10 μM, 72 h
Method: Cell viability for analogs 1–3 was examined on B16F10 cells at 1, 2, 5, and 10 μM concentrations for 72 h.
The influence of (Z)-BBTT analogs 1–3 on B16F10 cell viability was studied using an EZ-Cytox solution (EZ-1000®, DoGenBio, Seoul, Republic of Korea). B16F10 cells were seeded at a density of 1 × 10^3 in each well of a 96-well plate, and the plate was cultivated under normal cell culture conditions for 24 h. Analogs were added to each well at concentrations of 0, 1, 2, 5, and 10 μM, and then cells were cultivated for 72 h under normal cell culture conditions. An aliquot (10 μL) of the EZ-Cytox solution was added to each well and cultivated for 2 h. Well absorbance was recorded at 450 nm using a VE microplate reader to calculate cell viability.

[8] = DPPH radical-scavenging activity; details: 500 μM, 30 min in the dark
Method: For measuring the scavenging effect of analogs 1–12 on DPPH radicals, test samples (analogs 1–12 and ascorbic acid [positive reference standard]; final concentration: 500 μM) were mixed with a DPPH solution, and absorbance was measured at 517 nm after storing for 30 min in the dark to determine % DPPH radical-scavenging ability.
L-Ascorbic acid was used as a positive control. Test samples (analogs 1–12 and L-ascorbic acid; 5 mM, 20 μL) dissolved in DMSO were added to each well of a 96-well plate containing the DPPH methanol solution (0.2 mM, 180 μL), and the plate was placed in the dark at 20 °C for 30 min. The absorbance was recorded at 517 nm using a VE microplate reader to calculate DPPH radical-scavenging activity.

[9] = molecular target: mushroom tyrosinase (Agaricus bisporus, UniProt C7FF04); assay: Mushroom tyrosinase inhibition assay (dopachrome, 475 nm); assay type: biochemical; details: substrate L-tyrosine
Method: The plate was placed at 37 °C for 30 min, and well absorbance was measured at 475 nm to determine the generated dopachrome amounts in each well using a VersaMax® Elisa (VE) microplate reader (Molecular Devices, San Jose, CA, USA).

Sequence of mushroom tyrosinase (C7FF04 2-392): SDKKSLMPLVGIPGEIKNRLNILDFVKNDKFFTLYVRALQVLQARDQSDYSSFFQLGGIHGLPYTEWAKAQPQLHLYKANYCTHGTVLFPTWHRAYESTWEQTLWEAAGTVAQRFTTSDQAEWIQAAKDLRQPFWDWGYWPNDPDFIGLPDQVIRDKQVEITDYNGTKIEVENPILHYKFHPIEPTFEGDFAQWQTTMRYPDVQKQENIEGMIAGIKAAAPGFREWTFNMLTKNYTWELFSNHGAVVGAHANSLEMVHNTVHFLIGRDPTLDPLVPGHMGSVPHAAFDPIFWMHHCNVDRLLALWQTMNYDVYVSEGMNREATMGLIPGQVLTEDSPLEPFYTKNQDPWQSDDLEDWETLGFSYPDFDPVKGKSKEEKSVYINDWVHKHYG

Row | inhibition of cellular tyrosinase activity compared with kojic acid [4] | effect on stimulator-enhanced cellular tyrosinase activity [4] | SMILES | ROS-scavenging activity (SIN-1-induced ROS levels) [1] | % ABTS^•+ scavenging [2] [%] | effect on stimulator-induced increase in melanin contents ([3]; α-MSH + IBMX) | cytotoxicity to HaCaT cells [5] | relative dark area of cells compared with kojic acid at the same concentration [6] | number of cells strongly stained with melanin [6] | cytotoxicity to B16F10 cells [7] | % DPPH radical-scavenging [8] [%] | further results
1 |  |  | Cc1c(C)c2c(c(C)c1O)CCC(C)(C(=O)O)O2 (centres unmarked) [Trolox, reference compound] | significantly reduced | 99 |  |  |  |  |  |  | 
2 | more strongly than kojic acid | significantly decreased | O=C1/C(=C/c2ccc(O)cc2O)SC(=S)N1Cc1ccccc1 [Compound 3, (Z)-3-Benzyl-5-(2,4-dihydroxybenzylidene)-2-thioxothiazolidin-4-one] | equipotent to that of Trolox | 98 | significantly decreased | no perceptible cytotoxicity | significantly less than that of kojic acid | reduced the number of strongly stained cells in a concentration-dependent manner | not cytotoxic; also recorded: no perceptible cytotoxicity |  | inhibition of melanin production compared with kojic acid at the same concentration ([3]; 10 μM, α-MSH + IBMX): significantly more potently than kojic acid; melanin content compared with 10 μM kojic acid ([3]; analog at 2 μM, α-MSH + IBMX): more weakly than 10 μM kojic acid
3 |  |  | O=C1/C(=C/c2ccc(O)c(O)c2)SC(=S)N1Cc1ccccc1 [Compound 2, (Z)-3-Benzyl-5-(3,4-dihydroxybenzylidene)-2-thioxothiazolidin-4-one] | greater ROS-scavenging potency than Trolox | 99 |  |  |  |  | cytotoxic at all tested concentrations | 95 | 
4 | more strongly than kojic acid | significantly decreased | O=C1/C(=C/c2ccc(O)cc2)SC(=S)N1Cc1ccccc1 [Compound 1, (Z)-3-Benzyl-5-(4-hydroxybenzylidene)-2-thioxothiazolidin-4-one] |  |  | significantly decreased | no perceptible cytotoxicity | significantly less than that of kojic acid | reduced the number of strongly stained cells in a concentration-dependent manner | not cytotoxic; also recorded: no perceptible cytotoxicity |  | stimulator-induced increased melanin content reduced by (fold) ([3]; 10 μM, α-MSH 1 μM + IBMX 200 μM, stimulators alone 5.0-fold increase): 1.9 fold; inhibitory potency relative to kojic acid (IC50 ratio) [9]: four-fold lower
5 |  |  | O=C1O[C@H]([C@@H](O)CO)C(O)=C1O [Ascorbic acid, L-Ascorbic acid, reference compound] |  |  |  |  |  |  |  | 97 | 
6 |  |  | COc1ccc(/C=C2\SC(=S)N(Cc3ccccc3)C2=O)cc1O [Compound 5, (Z)-3-Benzyl-5-(3-hydroxy-4-methoxybenzylidene)-2-thioxothiazolidin-4-one] |  | 71 |  |  |  |  |  | 17 | 
